Values of other authors as cited in paper PMC11212004 (Pharmacology Research & Perspectives, 2024).

Assays:
[1] = collagen‐induced arthritis (CIA) model

For `CCC(=O)Nc1ccc(Cl)c(Cl)c1` [DCPA, 3,4‐dichloropropionanilide], the “Orai calcium channel antagonism” value (Orai calcium channel) is given as “functions as an Orai calcium channel antagonist”, the “IL‐2 secretion” value (Jurkat cells) is given as “decreased NFAT‐dependent IL‐2 secretion” and the “bone erosion and cartilage damage” value [1] is given as “reduces bone erosion and cartilage damage”. The “mineral resorption by osteoclasts in vitro” value (osteoclasts) was “inhibits mineral resorption”.
